Laboratory results published in patent publication US5061794A, “Cephalosporin derivatives, and antibacterial agents” (priority 1986, dated 1991).
In brackets after ≈: the same amount, converted by molar mass. Like-named read-outs stand apart in the source and are kept apart here.

Columns and labels:
[1] = tested on: E. coli CSH(RE45); test: microbe, parasite or virus in culture; type: cell-based; conditions: 10^6 CFU/ml; for MIC: Escherichia coli, 16 h, read-out: Minimum Inhibitory Concentration (MIC), *E. coli CSH(RE45), lactamase-producing strain
Method: (§1) The in vitro antibacterial activities of the compounds of the present invention against various microorganisms, were measured by the following agar plate dilution method. One platinum loopfull of each test microorganism incubated overnight in Mueller Hinton broth, was inoculated to Mueller Hinton agar (inoculum size: 10^6 CFU/ml). Such culture media containing various antibiotics in various concentrations were prepared. After incubation at 37° C. for 16 hours, the minimum inhibitory concentrations (MIC: μg/ml) were measured.

[2] = tested on: E. coli CSH2 (RK1); test: microbe, parasite or virus in culture; type: cell-based; conditions: 10^6 CFU/ml; for MIC: Escherichia coli, 16 h, read-out: Minimum Inhibitory Concentration (MIC), *E. coli CSH2 (RK1), lactamase-producing strain
Method: as §1

[3] = tested on: E. cloacae 963; test: in vitro antibacterial activity, agar plate dilution method (MIC); type: cell-based; conditions: 10^6 CFU/ml
Method: as §1

[4] = tested on: E. cloacae Nek 39; test: as above; type: cell-based; conditions: Enterobacter cloacae, NEK39, 16 h, 10^6 CFU/ml
Method: as §1

[5] = tested on: E. coli GN5482; test: as above; type: cell-based; conditions: Escherichia coli
Method: as §1

[6] = tested on: E. coli NIHJ JC2; test: as above; type: cell-based; conditions: Escherichia coli
Method: as §1

[7] = tested on: K. oxytoca GN10650; test: as above; type: cell-based; conditions: Klebsiella oxytoca, 10^6 CFU/ml
Method: as §1

[8] = tested on: K. pneumoniae No. 42; test: as above; type: cell-based; conditions: Klebsiella pneumoniae, 10^6 CFU/ml
Method: as §1

[9] = tested on: K. pneumoniae PCI-602; test: as above; type: cell-based; conditions: Klebsiella pneumoniae, PCI602, 16 h, 10^6 CFU/ml
Method: as §1

[10] = tested on: M. morganii GN5407; test: as above; type: cell-based; conditions: 10^6 CFU/ml; for MIC: Morganella morganii
Method: as §1

[11] = tested on: P. vulgaris HX-19; test: as above; type: cell-based; conditions: P. vulgaris HX-19, 10^6 CFU/ml; for MIC: Proteus vulgaris, HX19, 16 h, read-out: Minimum Inhibitory Concentration (MIC)
Method: as §1

[12] = tested on: P. vulgaris No. 33; test: as above; type: cell-based; conditions: 10^6 CFU/ml; for MIC: Proteus vulgaris, NO.33, 16 h, read-out: Minimum Inhibitory Concentration (MIC), *P. vulgaris No. 33, lactamase-producing strain
Method: as §1

[13] = tested on: S. aureus 209P NIHJ-JC1; test: as above; type: cell-based; conditions: Staphylococcus aureus, 16 h, read-out: Minimum Inhibitory Concentration (MIC)
Method: as §1

[14] = tested on: S. marcescens IAM 1184; test: as above; type: cell-based; conditions: Serratia marcescens, IAM1184, 16 h, read-out: Minimum Inhibitory Concentration (MIC)
Method: as §1

[15] = tested on: S. marcescens No. 16-2; test: as above; type: cell-based; conditions: Serratia marcescens, NO.162, 16 h
Method: as §1

[16] = tested on: Ps. aeruginosa AK 109; test: as above; type: cell-based, Pseudomonas aeruginosa; conditions: Pseudomonas aeruginosa, AK109, 16 h, read-out: Minimum Inhibitory Concentration (MIC)
Method: as §1

[17] = tested on: Ps. aeruginosa AKR17; test: as above; type: cell-based, Pseudomonas aeruginosa; conditions: Pseudomonas aeruginosa, 10^6 CFU/ml
Method: as §1

[18] = tested on: Ps. aeruginosa IF03445; test: as above; type: cell-based, Pseudomonas aeruginosa; conditions: Pseudomonas aeruginosa, 10^6 CFU/ml
Method: as §1

[19] = tested on: Ps. cepacia 23; test: as above; type: cell-based, Pseudomonas cepacia; conditions: Burkholderia cepacia, 16 h; Ps. cepacia 23; 10^6 CFU/ml; read-out: Minimum Inhibitory Concentration (MIC)
Method: as §1

[20] = tested on: A. calcoaceticus No. 4; test: as above; type: cell-based, Acinetobacter calcoaceticus; conditions: Acinetobacter calcoaceticus, NO.4, 16 h, 10^6 CFU/ml
Method: as §1

[21] = Enterobacter cloacae, 963, 16 h, read-out: Minimum Inhibitory Concentration (MIC), E. cloacae 963
[22] = read-out: Minimum Inhibitory Concentration (MIC), *E. cloacae Nek 39, lactamase-producing strain
[23] = NIHJJC2, 16 h, read-out: Minimum Inhibitory Concentration (MIC), E. coli NIHJ JC2, 10^6 CFU/ml, 37° C.
[24] = NO.42, 16 h, read-out: Minimum Inhibitory Concentration (MIC), *K. pneumoniae No. 42, lactamase-producing strain
[25] = read-out: Minimum Inhibitory Concentration (MIC), K. pneumoniae PCI-602
[26] = S. marcescens IAM 1184, 10^6 CFU/ml
[27] = read-out: Minimum Inhibitory Concentration (MIC), *S. marcescens No. 16-2, lactamase-producing strain, 10^6 CFU/ml
[28] = Ps. aeruginosa AK 109, 10^6 CFU/ml
[29] = A. calcoaceticus No. 4, read-out: Minimum Inhibitory Concentration (MIC)
[30] = Enterobacter cloacae, 16 h, E. cloacae 963, read-out: Minimum Inhibitory Concentration (MIC)
[31] = S. aureus 209P NIHJ-JC1, 10^6 CFU/ml, 37° C., 16 hours
[32] = 16 h, Ps. aeruginosa IF03445, read-out: Minimum Inhibitory Concentration (MIC)
[33] = 16 h, *K. oxytoca GN10650, lactamase-producing strain, read-out: Minimum Inhibitory Concentration (MIC)
[34] = GN5407, 16 h, read-out: Minimum Inhibitory Concentration (MIC), *M. morganii GN5407, lactamase-producing strain
[35] = 16 h, Ps. aeruginosa AKR17, read-out: Minimum Inhibitory Concentration (MIC)

Compound	MIC [3, 21] [µg/mL]	MIC [4, 22] [µg/mL]	MIC [6, 23] [µg/mL]	MIC [8, 24] [µg/mL]	MIC [9, 25] [µg/mL]	MIC [14, 26] [µg/mL]	MIC [15, 27] [µg/mL]	MIC [16, 28] [µg/mL]	MIC [19] [µg/mL]	MIC [20, 29] [µg/mL]	MIC [2] [µg/mL]	MIC [3, 30] [µg/mL]	MIC [11] [µg/mL]	MIC [13, 31] [µg/mL]	MIC [14] [µg/mL]	MIC [18, 32] [µg/mL]	MIC [1] [µg/mL]	MIC [7, 33] [µg/mL]	MIC [10, 34] [µg/mL]	MIC [12] [µg/mL]	further results
Nc1nc(/C(=N/OC(C(=O)O)c2ccccc2)C(=O)N[C@@H]2C(=O)N3C(C(=O)O)=C(CSc4nnc(-c5ccc(O)c(O)c5)o4)CS[C@H]23)cs1 (single isomer, unassigned) [Example 24 DA, disodium 78-[2-(2-aminothiazol-4-yl)-2-(α-carboxylatebenzyloxyimino)acetamido]-3-[5-(3,4-dihydroxyphenyl)-1,3,4-oxadiazol-2-yl]-thiomethyl-3-cephem-4-carboxylate]	0.05	0.025	0.2	0.0125	< 0.006	0.025	0.78	0.1	< 0.006	0.05	–	–	–	–	–	–	–	–	–	–	Minimum Inhibitory Concentration (MIC) ([1]; *E. coli CSH(RE45), lactamase-producing strain): < 0.006 µg/mL; Minimum Inhibitory Concentration (MIC) ([2]; *E. coli CSH2 (RK1), lactamase-producing strain): < 0.006 µg/mL; MIC ([5]; GN5482, 16 h, read-out: Minimum Inhibitory Concentration (MIC)): 0.39 µg/mL; MIC ([7]; GN10650, 16 h, read-out: Minimum Inhibitory Concentration (MIC), *K. oxytoca GN10650, lactamase-producing strain): 0.0125 µg/mL; Minimum Inhibitory Concentration (MIC) ([10]; *M. morganii GN5407, lactamase-producing strain): 0.025 µg/mL; Minimum Inhibitory Concentration (MIC) [11]: < 0.006 µg/mL; Minimum Inhibitory Concentration (MIC) ([12]; *P. vulgaris No. 33, lactamase-producing strain): 0.0125 µg/mL; MIC [13]: 12.5 µg/mL; MIC ([17]; AKR17, 16 h, read-out: Minimum Inhibitory Concentration (MIC), Ps. aeruginosa AKR17): 0.78 µg/mL; MIC ([18]; IF03445, 16 h, read-out: Minimum Inhibitory Concentration (MIC), Ps. aeruginosa IF03445): 0.78 µg/mL
CO/N=C(\C(=O)N[C@@H]1C(=O)N2C(C(=O)O)=C(COC(C)=O)CS[C@H]12)c1csc(N)n1 [cefotaxime, reference compound]	–	–	–	–	–	–	–	12.5 (≈ 27.4 µM)	6.25 (≈ 13.7 µM)	–	0.0125 (≈ 0.0274 µM)	0.05 (≈ 0.11 µM)	< 0.006	1.56 (≈ 3.43 µM)	0.0125 (≈ 0.0274 µM)	2.5 (≈ 5.49 µM)	–	–	–	–	MIC ([4]; *E. cloacae Nek 39, lactamase-producing strain, read-out: Minimum Inhibitory Concentration (MIC)): 1.56 µg/mL (≈ 3.43 µM); MIC ([9]; K. pneumoniae PCI-602, read-out: Minimum Inhibitory Concentration (MIC)): < 0.006 µg/mL; MIC ([10]; 16 h, *M. morganii GN5407, lactamase-producing strain, read-out: Minimum Inhibitory Concentration (MIC)): 0.05 µg/mL (≈ 0.11 µM); MIC ([15]; *S. marcescens No. 16-2, lactamase-producing strain, 10^6 CFU/ml, read-out: Minimum Inhibitory Concentration (MIC)): 6.25 µg/mL (≈ 13.7 µM)
CC(C)(O/N=C(\C(=O)N[C@@H]1C(=O)N2C(C(=O)O)=C(CSc3nnc(-c4ccc(O)cc4)o3)CS[C@H]12)c1csc(N)n1)C(=O)O [compound 4, disodium 7β-[2-(2-aminothiazol-4-yl)-2-(1-carboxylate-1-methylethoxyimino)acetamido]-3-[5-(4-hydroxyphenyl)-1,3,4-oxadiazol-2-yl]thiomethyl-3-cephem-4-carboxylate, reference compound]	–	12.5	–	–	0.1	–	–	–	–	25	0.78	3.12	0.1	6.25	0.78	25	0.78	1.56	0.78	0.2	MIC ([5]; 16 h, *E. coli GN5482, lactamase-producing strain, 10^6 CFU/ml, read-out: Minimum Inhibitory Concentration (MIC)): 1.56 µg/mL; MIC ([6]; NIHJJC2, E. coli NIHJ JC2, 10^6 CFU/ml, 37° C., 16 hours, read-out: Minimum Inhibitory Concentration (MIC)): 3.12 µg/mL; MIC ([8]; 16 h, *K. pneumoniae No. 42, lactamase-producing strain, read-out: Minimum Inhibitory Concentration (MIC)): 1.56 µg/mL; MIC ([15]; read-out: Minimum Inhibitory Concentration (MIC)): 12.5 µg/mL; MIC [16]: 12.5 µg/mL; MIC [17, 35]: > 100 µg/mL
CON=C(C(=O)NC1C(=O)N2C(C(=O)O)=C(CSc3nc(-c4ccc(OC(C)=O)c(OC(C)=O)c4)cs3)CSC12)c1csc(N)n1 (stereo not drawn) [compound 40, sodium 3-[4-(3,4-diacetoxyphenyl)-thiazol-2-yl]thiomethyl-7β-[2-(2-aminothiazol-4-yl)-2-methoxviminoacetamido]-3-cephem-4-carboxvlate]	0.05	0.39	0.2	0.2	< 0.006	0.1	6.25	–	–	–	0.025	–	0.0125	1.56	–	1.56	0.2	1.56	0.1	0.1	MIC ([5]; GN5482, 16 h, read-out: Minimum Inhibitory Concentration (MIC), *E. coli GN5482, lactamase-producing strain, 10^6 CFU/ml): 0.78 µg/mL; MIC [16]: 3.12 µg/mL; MIC [17, 35]: < 100 µg/mL; MIC ([20]; read-out: Minimum Inhibitory Concentration (MIC), A. calcoaceticus No. 4): 0.78 µg/mL
